Experimental data taken from article PMC12461739, “Multi-targeted azacoumarin–cyanocinnamate hybrids induce G2/M arrest and apoptosis via tubulin, and COX-2/VEGFR modulation: insights from in vitro mechanistic basis and in vivo validation” (RSC Medicinal Chemistry, 2025).
Where two headings read alike, the source gives them in different places.

Legend:
MCF-7 cells = assay: MTT antiproliferative assay, MCF-7; type: cell-based, human; settings: for IC50: MTT, 48 h treatment, read-out: IC50, antiproliferative activity toward MCF-7; for fold reduction of cytotoxic activity after acetylation of the hydroxyl group: MCF-7, vs parent compound (7 or 6a)
Method: (§1) The cytotoxic effects of the synthesized compounds were evaluated using the MTT assay. MCF-7, MDA-MB 231 (human breast cancer), and MCF-10A (non-tumorigenic breast epithelial) cells were seeded (1–3 × 10^4 cells per well) and incubated for 24 hours at 37 °C in a humidified atmosphere containing 5% CO2.[74] Following incubation, cells were treated with serial dilutions of the test compounds prepared in DMSO. The final concentration of DMSO in all wells, including controls, was maintained below 0.5% v/v to avoid solvent-related cytotoxicity. Doxorubicin was used as a positive control for comparison of antiproliferative activity. Following 48 hours of treatment, the culture medium was gently removed, and each well received 20 μL of MTT reagent (5 mg mL^−1 in phosphate-buffered saline). The plates were incubated at 37 °C for 4 hours to facilitate the enzymatic reduction of MTT into formazan by metabolically active cells. After incubation, the solution was discarded, and 100 μL of dimethyl sulfoxide was added. The absorbance of each well was measured at 570 nm using a microplate spectrophotometer. Cell viability was determined by comparing absorbance values to those of the untreated controls and expressed as a percentage. GraphPad Prism software was used to plot dose–response curves and calculate IC50 values.

MDA-MB 231 cells = assay: MTT antiproliferative assay, MDA-MB 231; type: cell-based, human; settings: for IC50: Homo sapiens, MDA-MB-231, 48 h, MTT, 48 h treatment, read-out: IC50, antiproliferative activity toward MDA-MB 231
Method: as §1

[1] = MTT cytotoxicity assay, MCF-10A; type: cell-based, human; settings: human, MCF-10A non-tumorigenic breast epithelial cells, MTT, 48 h treatment, non-tumorigenic breast epithelial cells; read-out: IC50, cytotoxicity toward MCF-10A
Method: as §1, with “MCF-7, MDA-MB 231 (human breast cancer), and MCF-10A (non-tumorigenic breast epithelial) cells were seeded (1–3 × 10^4 cells per well) and incubated for 24 hours at 37 °C in a humidified atmosphere containing 5% CO2.[74]” left out

MCF-10A cells = assay: MTT cytotoxicity assay, MCF-10A; type: cell-based, human
Method: as §1, with “MCF-7, MDA-MB 231 (human breast cancer), and MCF-10A (non-tumorigenic breast epithelial) cells were seeded (1–3 × 10^4 cells per well) and incubated for 24 hours at 37 °C in a humidified atmosphere containing 5% CO2.[74]” left out

[2] = FRAP (ferric reducing antioxidant power) assay; settings: 37 °C, 60 min
Method: The resulting Fe^2+ forms a colored complex with the FRAP chromogenic probe, which can be quantitatively measured. The reaction mixture was prepared by combining FRAP assay buffer, FRAP probe, and FeCl3 solution as per the manufacturer's protocol. […] Absorbance was measured at 594 nm using a microplate reader after incubation at 37 °C for 60 minutes. Antioxidant activity was determined by comparing the absorbance of the samples to a standard curve generated using known concentrations of the ferrous standard provided in the kit.

SMILES | IC50 (MCF-7 cells; Homo sapiens, MCF7, 48 h) [µM] | IC50 (MDA-MB 231 cells) [µM] | IC50 [2] [µM] | IC50 at 48 h [1] [µM] | selectivity index toward breast cancer cells (MCF-10A cells; MCF-10A vs MCF-7 / MDA-MB 231) | IC50 (MCF-10A cells; MTT, 48 h treatment, non-tumorigenic breast epithelial cells, read-out: IC50, cytotoxicity toward MCF-10A) [µM] | fold reduction of cytotoxic activity after acetylation of the hydroxyl group (MCF-7 cells) [fold] | IC50 (MCF-7 cells) [µM] | fold improvement in cytotoxicity in MDA-MB-231 compared to MCF-7 (MDA-MB 231 cells; MDA-MB-231 vs MCF-7) [fold]
COc1cccc2c1C(=O)c1c(O)c3c(c(O)c1C2=O)C[C@@](O)(C(=O)CO)C[C@@H]3O[C@H]1C[C@H](N)[C@H](O)[C@H](C)O1 [doxorubicin, reference compound] | 12.6 ± 0.61 | 8.4 ± 0.61 | – | 16.2 ± 0.55 | 1.3 | 16.2 ± 0.55 | – | – | –
CCOC(=O)/C(C#N)=C/c1ccc(Oc2c(C)c3cc(Br)c(OC(C)=O)c(Br)c3[nH]c2=O)cc1 [Compound 8, ethyl (E)-3-(4-((7-acetoxy-6,8-dibromo-4-methyl-2-oxo-1,2-dihydroquinolin-3-yl)oxy)phenyl)-2-cyanoacrylate] | 17.8 ± 1.05 | 26.9 ± 0.79 | – | – | – | – | 2.3 | 17.8 ± 1.05 | –
CCOC(=O)/C(C#N)=C/c1ccc(Oc2c(C)c3cc(Br)c(OC(C)=O)c(Br)c3[nH]c2=O)c(OC)c1 [Compound 9, ethyl (E)-3-(4-((7-acetoxy-6,8-dibromo-4-methyl-2-oxo-1,2-dihydroquinolin-3-yl)oxy)-3-methoxyphenyl)-2-cyanoacrylate] | 33.4 ± 1.96 | 44.2 ± 2.96 | – | – | – | – | 1.25 | 33.4 ± 1.96 | –
O=C1O[C@H]([C@@H](O)CO)C(O)=C1O [ascorbic acid, reference compound] | – | – | 110 ± 4.21 | – | – | – | – | – | –

Continued, in another order:

IC50 (MCF-7 cells; Homo sapiens, MCF7, 48 h) [µM] | IC50 (MDA-MB 231 cells) [µM] | IC50 [2] [µM] | SMILES | IC50 at 48 h [1] [µM] | selectivity index toward breast cancer cells (MCF-10A cells; MCF-10A vs MCF-7 / MDA-MB 231) | IC50 (MCF-10A cells; MTT, 48 h treatment, non-tumorigenic breast epithelial cells, read-out: IC50, cytotoxicity toward MCF-10A) [µM] | fold reduction of cytotoxic activity after acetylation of the hydroxyl group (MCF-7 cells) [fold] | IC50 (MCF-7 cells) [µM] | fold improvement in cytotoxicity in MDA-MB-231 compared to MCF-7 (MDA-MB 231 cells; MDA-MB-231 vs MCF-7) [fold]
112 ± 6.57 | 31.1 ± 1.87 | – | CCOC(=O)/C(C#N)=C/c1cc(Br)c(Oc2c(C)c3cc(Br)c(O)c(Br)c3[nH]c2=O)c(Br)c1 [Compound 6b, ethyl (E)-2-cyano-3-(3,5-dibromo-4-((6,8-dibromo-7-hydroxy-4-methyl-2-oxo-1,2-dihydroquinolin-3-yl)oxy)phenyl)acrylate] | – | – | – | – | 112 ± 6.57 | ~3.6
26.6 ± 1.56 | 19.6 ± 1.72 | – | CCOC(=O)/C(C#N)=C/c1ccc(Oc2c(C)c3cc(Br)c(O)c(Br)c3[nH]c2=O)c(OC)c1 [Compound 6a, ethyl (E)-2-cyano-3-(4-((6,8-dibromo-7-hydroxy-4-methyl-2-oxo-1,2-dihydroquinolin-3-yl)oxy)-3-methoxyphenyl)acrylate] | – | – | – | – | 26.6 ± 1.56 | –
